From ChEMBL document CHEMBL3826915, “Design and comparative anticonvulsant activity assessment of CNS-active alkyl-carbamoyl imidazole derivatives” (Bioorg Med Chem, 2016)
Active and inactive are the calls of the source. The calls are words filed in the database; no cut-off is given here.

Experiments:
[1] = system: Mus musculus; test: Anticonvulsant activity in albino CF1 mouse assessed as protection against maximal electroshock-induced seizures at 100 mg/kg, ip after 0.5 hrs; assay type: functional, organism-based
[2] = system: Mus musculus; test: Anticonvulsant activity in albino CF1 mouse assessed as protection against maximal electroshock-induced seizures at 300 mg/kg, ip after 0.5 hrs; assay type: functional, organism-based
[3] = system: Mus musculus; test: Anticonvulsant activity in albino CF1 mouse assessed as protection against maximal electroshock-induced seizures at 30 mg/kg, ip after 2 hrs; assay type: functional, organism-based
[4] = system: Mus musculus; test: Anticonvulsant activity in albino CF1 mouse assessed as protection against 32 mA current-induced seizure at 30 mg/kg, ip after 0.5 hrs by 6 Hz psychomotor test; assay type: functional, organism-based
[5] = system: Mus musculus; test: Anticonvulsant activity in albino CF1 mouse assessed as protection against 32 mA current-induced seizure at 100 mg/kg, ip after 0.5 hrs by 6 Hz psychomotor test; assay type: functional, organism-based
[6] = system: Mus musculus; test: Anticonvulsant activity in albino CF1 mouse assessed as protection against 32 mA current-induced seizure at 300 mg/kg, ip after 0.5 hrs by 6 Hz psychomotor test; assay type: functional, organism-based
[7] = system: Mus musculus; test: Anticonvulsant activity in albino CF1 mouse assessed as protection against 32 mA current-induced seizure at 30 mg/kg, ip after 2 hrs by 6 Hz psychomotor test; assay type: functional, organism-based
[8] = system: Mus musculus; test: Anticonvulsant activity in albino CF1 mouse assessed as protection against 32 mA current-induced seizure at 100 mg/kg, ip after 2 hrs by 6 Hz psychomotor test; assay type: functional, organism-based
[9] = system: Mus musculus; test: Anticonvulsant activity in albino CF1 mouse assessed as protection against 32 mA current-induced seizure at 300 mg/kg, ip after 2 hrs by 6 Hz psychomotor test; assay type: functional, organism-based
[10] = system: Mus musculus; test: Anticonvulsant activity in albino CF1 mouse assessed as protection against 44 mA current-induced seizure at 50 mg/kg, ip after 0.25 hrs by 6 Hz psychomotor test; assay type: functional, organism-based
[11] = system: Mus musculus; test: Neurotoxicity in albino CF1 mouse assessed as behavioral impairment at 30 mg/kg, ip after 0.5 hrs by rotorod test; assay type: toxicity, organism-based; conditions: in vivo
[12] = system: Mus musculus; test: Neurotoxicity in albino CF1 mouse assessed as behavioral impairment at 300 mg/kg, ip after 0.5 hrs by rotorod test; assay type: toxicity, organism-based; conditions: in vivo
[13] = system: Mus musculus; test: Neurotoxicity in albino CF1 mouse assessed as behavioral impairment at 30 mg/kg, ip after 2 hrs by rotorod test; assay type: toxicity, organism-based; conditions: in vivo
[14] = system: Mus musculus; test: Neurotoxicity in albino CF1 mouse assessed as behavioral impairment at 300 mg/kg, ip after 2 hrs by rotorod test; assay type: toxicity, organism-based; conditions: in vivo
[15] = system: Mus musculus; test: Neurotoxicity in albino CF1 mouse assessed as behavioral impairment at 50 mg/kg, ip after 0.25 hrs by rotorod test; assay type: toxicity, organism-based; conditions: in vivo
[16] = system: Mus musculus; test: Neurotoxicity in albino CF1 mouse assessed as behavioral impairment at 50 mg/kg, ip after 1 hr by rotorod test; assay type: toxicity, organism-based; conditions: in vivo
[17] = system: Mus musculus; test: Neurotoxicity in albino CF1 mouse assessed as behavioral impairment at 50 mg/kg, ip after 2 hrs by rotorod test; assay type: toxicity, organism-based; conditions: in vivo
[18] = system: Rattus norvegicus; test: Anticonvulsant activity in albino Sprague-Dawley rat assessed as protection against maximal electroshock-induced seizures at 30 mg/kg, ip after 0.25 hrs; assay type: functional, organism-based
[19] = system: Rattus norvegicus; test: Anticonvulsant activity in albino Sprague-Dawley rat assessed as protection against maximal electroshock-induced seizures at 30 mg/kg, ip after 0.5 hrs; assay type: functional, organism-based
[20] = system: Rattus norvegicus; test: Anticonvulsant activity in albino Sprague-Dawley rat assessed as protection against maximal electroshock-induced seizures at 30 mg/kg, po after 0.5 hrs; assay type: functional, organism-based
[21] = system: Rattus norvegicus; test: Anticonvulsant activity in albino Sprague-Dawley rat assessed as protection against maximal electroshock-induced seizures at 30 mg/kg, po after 1 hr; assay type: functional, organism-based
[22] = system: Rattus norvegicus; test: Anticonvulsant activity in albino Sprague-Dawley rat assessed as protection against maximal electroshock-induced seizures at 30 mg/kg, ip after 2 hrs; assay type: functional, organism-based
[23] = system: Rattus norvegicus; test: Anticonvulsant activity in albino Sprague-Dawley rat assessed as protection against maximal electroshock-induced seizures at 30 mg/kg, po after 2 hrs; assay type: functional, organism-based
[24] = system: Rattus norvegicus; test: Neurotoxicity in albino Sprague-Dawley rat assessed as behavioral impairment at 30 mg/kg, ip after 0.25 hrs by rotorod test; assay type: toxicity, organism-based; conditions: in vivo
[25] = system: Rattus norvegicus; test: Neurotoxicity in albino Sprague-Dawley rat assessed as behavioral impairment at 30 mg/kg, po after 0.25 hrs by rotorod test; assay type: toxicity, organism-based; conditions: in vivo
[26] = system: Rattus norvegicus; test: Neurotoxicity in albino Sprague-Dawley rat assessed as behavioral impairment at 30 mg/kg, ip after 0.5 hrs by rotorod test; assay type: toxicity, organism-based; conditions: in vivo
[27] = system: Rattus norvegicus; test: Neurotoxicity in albino Sprague-Dawley rat assessed as behavioral impairment at 30 mg/kg, po after 0.5 hrs by rotorod test; assay type: toxicity, organism-based; conditions: in vivo
[28] = system: Rattus norvegicus; test: Neurotoxicity in albino Sprague-Dawley rat assessed as behavioral impairment at 30 mg/kg, ip after 1 hr by rotorod test; assay type: toxicity, organism-based; conditions: in vivo
[29] = system: Rattus norvegicus; test: Neurotoxicity in albino Sprague-Dawley rat assessed as behavioral impairment at 30 mg/kg, po after 1 hr by rotorod test; assay type: toxicity, organism-based; conditions: in vivo
[30] = system: Rattus norvegicus; test: Neurotoxicity in albino Sprague-Dawley rat assessed as behavioral impairment at 30 mg/kg, ip after 2 hrs by rotorod test; assay type: toxicity, organism-based; conditions: in vivo
[31] = system: Rattus norvegicus; test: Neurotoxicity in albino Sprague-Dawley rat assessed as behavioral impairment at 30 mg/kg, po after 2 hrs by rotorod test; assay type: toxicity, organism-based; conditions: in vivo
[32] = system: Rattus norvegicus; test: Anticonvulsant activity in ip dosed albino Sprague-Dawley rat assessed as protection against maximal electroshock-induced seizures; assay type: functional
[33] = system: Rattus norvegicus; test: Anticonvulsant activity in ip dosed albino Sprague-Dawley rat assessed as protection against maximal electroshock-induced seizures by measuring time to peak effect; assay type: functional
[34] = Protective index, ratio of TD50 for neurotoxicity in ip dosed albino Sprague-Dawley rat to ED50 for anticonvulsant activity in ip dosed maximal electroshock-induced seizure albino Sprague-Dawley rat model; assay type: toxicity, organism-based; conditions: in vivo, read-out: Ratio TD50/ED50
[35] = system: Rattus norvegicus; test: Anticonvulsant activity in ip dosed albino Sprague-Dawley rat assessed as protection against subcutaneous metrazol-induced seizures; assay type: functional
[36] = Protective index, ratio of TD50 for neurotoxicity in ip dosed albino Sprague-Dawley rat to ED50 for anticonvulsant activity in ip dosed subcutaneous metrazol-induced seizure albino Sprague-Dawley rat model; assay type: toxicity, organism-based; conditions: in vivo, read-out: Ratio TD50/ED50
[37] = Neurotoxicity in ip dosed albino Sprague-Dawley rat assessed as motor impairment by rotorod test; assay type: toxicity, organism-based; conditions: in vivo
[38] = system: Rattus norvegicus; test: Anticonvulsant activity in ip dosed albino Sprague-Dawley rat assessed as protection against subcutaneous metrazol-induced seizures by measuring time to peak effect; assay type: functional
[39] = system: Mus musculus; test: Anticonvulsant activity in ip dosed albino CF1 mouse assessed as protection against maximal electroshock-induced seizures; assay type: functional
[40] = Protective index, ratio of TD50 for neurotoxicity in ip dosed albino CF1 mouse to ED50 for anticonvulsant activity in ip dosed maximal electroshock-induced seizure albino CF1 mouse model; assay type: toxicity, organism-based; conditions: in vivo, read-out: Ratio TD50/ED50
[41] = system: Mus musculus; test: Anticonvulsant activity in ip dosed albino CF1 mouse assessed as protection against subcutaneous metrazol-induced seizures; assay type: functional
[42] = Protective index, ratio of TD50 for neurotoxicity in ip dosed albino CF1 mouse to ED50 for anticonvulsant activity in ip dosed […] metrazol-induced seizure albino CF1 mouse model; assay type: toxicity, organism-based; conditions: in vivo, read-out: Ratio TD50/ED50
[43] = system: Mus musculus; test: Anticonvulsant activity in ip dosed albino CF1 mouse assessed as protection against maximal electroshock-induced seizures by measuring time to peak effect; assay type: functional
[44] = system: Mus musculus; test: Anticonvulsant activity in ip dosed albino CF1 mouse assessed as protection against subcutaneous metrazol-induced seizures by measuring time to peak effect; assay type: functional
[45] = system: Mus musculus; test: Anticonvulsant activity in ip dosed albino CF1 mouse assessed as protection against 6 Hz current-induced seizures by psychomotor test; assay type: functional
[46] = system: Mus musculus; test: Anticonvulsant activity in ip dosed albino CF1 mouse assessed as protection against 6 Hz current-induced seizure by measuring time to peak effect; assay type: functional
[47] = Protective index, ratio of TD50 for neurotoxicity in ip dosed albino CF1 mouse to ED50 for anticonvulsant activity in ip dosed 6 Hz current-induced seizure albino CF1 mouse model; conditions: in vivo
[48] = Neurotoxicity in ip dosed albino CF1 mouse assessed as motor impairment by rotorod test; assay type: toxicity, organism-based; conditions: in vivo
[49] = system: Mus musculus; test: Anticonvulsant activity in albino CF1 mouse assessed as protection against maximal electroshock-induced seizures at 30 mg/kg, ip after 0.5 hrs; assay type: functional, organism-based
[50] = system: Mus musculus; test: Anticonvulsant activity in albino CF1 mouse assessed as protection against maximal electroshock-induced seizures at 100 mg/kg, ip after 2 hrs; assay type: functional, organism-based
[51] = system: Mus musculus; test: Anticonvulsant activity in albino CF1 mouse assessed as protection against 44 mA current-induced seizure at 100 mg/kg, ip after 0.25 hrs by 6 Hz psychomotor test; assay type: functional, organism-based
[52] = system: Mus musculus; test: Neurotoxicity in albino CF1 mouse assessed as behavioral impairment at 100 mg/kg, ip after 2 hrs by rotorod test; assay type: toxicity, organism-based; conditions: in vivo
[53] = system: Mus musculus; test: Neurotoxicity in albino CF1 mouse assessed as behavioral impairment at 100 mg/kg, ip after 0.25 hrs by rotorod test; assay type: toxicity, organism-based; conditions: in vivo
[54] = system: Mus musculus; test: Neurotoxicity in albino CF1 mouse assessed as behavioral impairment at 100 mg/kg, ip after 1 hr by rotorod test; assay type: toxicity, organism-based; conditions: in vivo
[55] = system: Rattus norvegicus; test: Anticonvulsant activity in albino Sprague-Dawley rat assessed as protection against maximal electroshock-induced seizures at 30 mg/kg, ip after 1 hr; assay type: functional, organism-based

## CCCC(CCC)COC(=O)NCCCn1ccnc1
[1]
  Activity: Active
[2]
  Activity: Active
[3]
  Activity: inactive
[4]
  Activity: inactive
[5]
  Activity: Active
[6]
  Activity: Active
[7]
  Activity: inactive
[8]
  Activity: Active
[9]
  Activity: Active
[10]
  Activity: inactive
[11]
  Activity: Non-toxic
[12]
  Activity: Toxic
[13]
  Activity: Non-toxic
[14]
  Activity: Toxic
[15]
  Activity: Non-toxic
[16]
  Activity: Non-toxic
[17]
  Activity: Non-toxic
[18]
  Activity: Active
[19]
  Activity: Active
[20]
  Activity: inactive
[21]
  Activity: inactive
[22]
  Activity: inactive
[23]
  Activity: inactive
[24]
  Activity: Non-toxic
[25]
  Activity: Non-toxic
[26]
  Activity: Non-toxic
[27]
  Activity: Non-toxic
[28]
  Activity: Non-toxic
[29]
  Activity: Non-toxic
[30]
  Activity: Non-toxic
[31]
  Activity: Non-toxic
[32]
  ED50: 12 mg/kg
[33]
  Time: 0.25 h
[34]
  selectivity ratio: 7.3
[35]
  ED50: > 88 mg/kg
[36]
  selectivity ratio: 1
[37]
  TD50: 87 mg/kg
[38]
  Time: 0.25 h
[39]
  ED50: 18 mg/kg
[40]
  selectivity ratio: 3.3
[41]
  ED50: > 70 mg/kg
[42]
  selectivity ratio: 0.9
[43]
  Time: 0.5 h
[44]
  Time: 0.5 h
[45]
  ED50: 32 mg/kg
[46]
  Time: 0.5 h
[47]
  selectivity ratio: 2
[48]
  TD50: 65 mg/kg

## CCCC(CC)OC(=O)NCCCn1ccnc1 (stereo not drawn)
[1]
  Activity: Active
[49]
  Activity: Active
[50]
  Activity: Active
[6]
  Activity: Active
[7]
  Activity: inactive
[51]
  Activity: Active
[11]
  Activity: Non-toxic
[12]
  Activity: Toxic
[13]
  Activity: Non-toxic
[52]
  Activity: Non-toxic
[14]
  Activity: Toxic
[53]
  Activity: Toxic
[54]
  Activity: Non-toxic
[18]
  Activity: Active
[19]
  Activity: Active
[20]
  Activity: inactive
[55]
  Activity: Active
[21]
  Activity: inactive
[22]
  Activity: Active
[23]
  Activity: inactive
[24]
  Activity: Non-toxic
[25]
  Activity: Non-toxic
[26]
  Activity: Non-toxic
[27]
  Activity: Non-toxic
[28]
  Activity: Non-toxic
[29]
  Activity: Non-toxic
[30]
  Activity: Non-toxic
[31]
  Activity: Non-toxic
[32]
  ED50: 17 mg/kg
[33]
  Time: 0.25 h
[34]
  selectivity ratio: 5.4
[35]
  ED50: > 92 mg/kg
[36]
  selectivity ratio: 1
[37]
  TD50: 92 mg/kg
[38]
  Time: 0.25 h
[39]
  ED50: 28 mg/kg
[40]
  selectivity ratio: 3.1
[41]
  ED50: > 50 mg/kg
[42]
  selectivity ratio: 1.7
[43]
  Time: 0.5 h
[44]
  Time: 0.5 h
[45]
  ED50: 135 mg/kg
[46]
  Time: 0.5 h
[47]
  selectivity ratio: 0.64
[48]
  TD50: 86 mg/kg
